{"source": "ChEMBL document CHEMBL1127517", "about": "(J Med Chem, 1994)", "key": {"[1]": {"target": "T1, Sodium-dependent dopamine transporter (Rattus norvegicus, UniProt P23977)", "T1 sequence (P23977 whole entry)": "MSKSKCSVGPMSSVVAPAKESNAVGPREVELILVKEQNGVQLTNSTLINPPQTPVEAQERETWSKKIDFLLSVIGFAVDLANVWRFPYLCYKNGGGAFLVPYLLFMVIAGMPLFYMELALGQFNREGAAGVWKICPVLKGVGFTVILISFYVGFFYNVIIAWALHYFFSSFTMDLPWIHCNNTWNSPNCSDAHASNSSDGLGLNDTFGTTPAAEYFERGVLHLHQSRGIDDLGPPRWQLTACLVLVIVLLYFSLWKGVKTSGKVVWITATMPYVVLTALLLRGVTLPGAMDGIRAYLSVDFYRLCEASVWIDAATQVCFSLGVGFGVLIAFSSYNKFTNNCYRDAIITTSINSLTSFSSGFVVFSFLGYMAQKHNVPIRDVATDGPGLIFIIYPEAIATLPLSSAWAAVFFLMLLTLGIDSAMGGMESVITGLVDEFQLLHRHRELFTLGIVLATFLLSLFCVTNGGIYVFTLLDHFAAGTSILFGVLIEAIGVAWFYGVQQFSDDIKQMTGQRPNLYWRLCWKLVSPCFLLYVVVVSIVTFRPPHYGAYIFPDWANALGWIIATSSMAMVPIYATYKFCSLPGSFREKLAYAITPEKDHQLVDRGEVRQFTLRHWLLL", "assay": "Inhibitory constant towards reuptake of [125I]-12 from dopamine transporter in rat striatal membranes", "assay_type": "cell membranes, Membrane"}, "[2]": {"target": "T1, Sodium-dependent dopamine transporter", "assay": "Inhibitory constant towards reuptake of [125I]-13 from dopamine transporter in rat striatal membranes", "assay_type": "cell membranes, Membrane"}, "[3]": {"system": "Rattus norvegicus", "assay": "Distribution of radio activity in tissues of unfasted male rats was measured as regional uptake at 120 min of time in ST/CB after intravenous administration", "assay_type": "ADME, organism-based", "details": "in vivo, 2 h"}, "[4]": {"system": "Rattus norvegicus", "assay": "Distribution of radio activity in tissues of unfasted male rats was measured as regional uptake at 120 min of time in cerebellum after intravenous administration", "assay_type": "ADME, organism-based", "details": "in vivo, 2 h"}, "[5]": {"system": "Rattus norvegicus", "assay": "Distribution of radio activity in tissues of unfasted male rats was measured as at 2 min of time in lung after intravenous administration", "assay_type": "ADME, organism-based", "details": "in vivo"}, "[6]": {"system": "Rattus norvegicus", "assay": "Distribution of radio activity in tissues of unfasted male rats was measured at 120 min of time in blood after intravenous administration", "assay_type": "ADME, organism-based", "details": "in vivo, 2 h"}, "[7]": {"system": "Rattus norvegicus", "assay": "Distribution of radio activity in tissues of unfasted male rats was measured at 120 min of time in brain after intravenous administration", "assay_type": "ADME, organism-based", "details": "in vivo, 2 h"}, "[8]": {"system": "Rattus norvegicus", "assay": "Distribution of radio activity in tissues of unfasted male rats was measured at 120 min of time in heart after intravenous administration", "assay_type": "ADME, organism-based", "details": "in vivo, 2 h"}, "[9]": {"system": "Rattus norvegicus", "assay": "Distribution of radio activity in tissues of unfasted male rats was measured at 120 min of time in kidney after intravenous administration", "assay_type": "ADME, organism-based", "details": "in vivo, 2 h"}, "[10]": {"system": "Rattus norvegicus", "assay": "Distribution of radio activity in tissues of unfasted male rats was measured at 120 min of time in liver after intravenous administration", "assay_type": "ADME, organism-based", "details": "in vivo, 2 h"}, "[11]": {"system": "Rattus norvegicus", "assay": "Distribution of radio activity in tissues of unfasted male rats was measured at 120 min of time in lung after intravenous administration", "assay_type": "ADME, organism-based", "details": "in vivo, 2 h"}, "[12]": {"system": "Rattus norvegicus", "assay": "Distribution of radio activity in tissues of unfasted male rats was measured at 120 min of time in muscle after intravenous administration", "assay_type": "ADME, organism-based, Muscle tissue", "details": "in vivo, 2 h"}, "[13]": {"system": "Rattus norvegicus", "assay": "Distribution of radio activity in tissues of unfasted male rats was measured at 120 min of time in skin after intravenous administration", "assay_type": "ADME, organism-based", "details": "in vivo, 2 h"}, "[14]": {"system": "Rattus norvegicus", "assay": "Distribution of radio activity in tissues of unfasted male rats was measured at 120 min of time in spleen after intravenous administration", "assay_type": "ADME, organism-based", "details": "in vivo, 2 h"}, "[15]": {"system": "Rattus norvegicus", "assay": "Distribution of radio activity in tissues of unfasted male rats was measured at 120 min of time in thyroid after intravenous administration", "assay_type": "ADME, organism-based, Thyroid gland", "details": "in vivo, 2 h"}, "[16]": {"system": "Rattus norvegicus", "assay": "Distribution of radio activity in tissues of unfasted male rats was measured at 2 min of time in blood after intravenous administration", "assay_type": "ADME, organism-based", "details": "in vivo"}, "[17]": {"system": "Rattus norvegicus", "assay": "Distribution of radio activity in tissues of unfasted male rats was measured at 2 min of time in brain after intravenous administration", "assay_type": "ADME, organism-based", "details": "in vivo"}, "[18]": {"system": "Rattus norvegicus", "assay": "Distribution of radio activity in tissues of unfasted male rats was measured at 2 min of time in heart after intravenous administration", "assay_type": "ADME, organism-based", "details": "in vivo"}, "[19]": {"system": "Rattus norvegicus", "assay": "Distribution of radio activity in tissues of unfasted male rats was measured at 2 min of time in kidney after intravenous administration", "assay_type": "ADME, organism-based", "details": "in vivo"}, "[20]": {"system": "Rattus norvegicus", "assay": "Distribution of radio activity in tissues of unfasted male rats was measured at 2 min of time in muscle after intravenous administration", "assay_type": "ADME, organism-based, Muscle tissue", "details": "in vivo"}, "[21]": {"system": "Rattus norvegicus", "assay": "Distribution of radio activity in tissues of unfasted male rats was measured at 2 min of time in skin after intravenous administration", "assay_type": "ADME, organism-based", "details": "in vivo"}, "[22]": {"system": "Rattus norvegicus", "assay": "Distribution of radio activity in tissues of unfasted male rats was measured as regional uptake at 60 min of time in cortex after intravenous administration", "assay_type": "ADME, organism-based", "details": "in vivo, 1 h"}, "[23]": {"system": "Rattus norvegicus", "assay": "Distribution of radio activity in tissues of unfasted male rats was measured as regional uptake at 60 min of time in hippocampus after intravenous administration", "assay_type": "ADME, organism-based", "details": "in vivo, 1 h"}, "[24]": {"system": "Rattus norvegicus", "assay": "Distribution of radio activity in tissues of unfasted male rats was measured as regional uptake at 60 min of time in striatum after intravenous administration", "assay_type": "ADME, organism-based", "details": "in vivo, 1 h"}, "[25]": {"system": "Rattus norvegicus", "assay": "Distribution of radio activity in tissues of unfasted male rats was measured at 30 min of time in lung after intravenous administration", "assay_type": "ADME, organism-based", "details": "in vivo, 0.5 h"}, "[26]": {"system": "Rattus norvegicus", "assay": "Distribution of radio activity in tissues of unfasted male rats was measured at 30 min of time in muscle after intravenous administration", "assay_type": "ADME, organism-based, Muscle tissue", "details": "in vivo, 0.5 h"}, "[27]": {"system": "Rattus norvegicus", "assay": "Distribution of radio activity in tissues of unfasted male rats was measured at 30 min of time in skin after intravenous administration", "assay_type": "ADME, organism-based", "details": "in vivo, 0.5 h"}, "[28]": {"system": "Rattus norvegicus", "assay": "Distribution of radio activity in tissues of unfasted male rats was measured at 30 min of time in kidney after intravenous administration", "assay_type": "ADME, organism-based", "details": "in vivo, 0.5 h"}, "[29]": {"system": "Rattus norvegicus", "assay": "Distribution of radio activity in tissues of unfasted male rats was measured at 30 min of time in liver after intravenous administration", "assay_type": "ADME, organism-based", "details": "in vivo, 0.5 h"}, "[30]": {"system": "Rattus norvegicus", "assay": "Distribution of radio activity in tissues of unfasted male rats was measured at 30 min of time in spleen after intravenous administration", "assay_type": "ADME, organism-based", "details": "in vivo, 0.5 h"}, "[31]": {"system": "Rattus norvegicus", "assay": "Distribution of radio activity in tissues of unfasted male rats was measured at 30 min of time in thyroid after intravenous administration", "assay_type": "ADME, organism-based, Thyroid gland", "details": "in vivo, 0.5 h"}}, "data": [{"smiles": "COC(=O)C1C(c2ccc(Cl)cc2)CC2CCC1N2C/C=C/I", "note": "(stereo unspecified)", "values": [{"measurement": "Ki", "setting": "[1]", "result": 0.69, "unit": "nM"}, {"measurement": "Ki", "setting": "[2]", "result": 3.2, "unit": "nM"}, {"measurement": "Dose/g", "setting": "[3]", "result": 16.5, "unit": "%"}, {"measurement": "Dose/g", "setting": "[4]", "result": 0.037, "unit": "%"}, {"measurement": "Injected dose/organ", "setting": "[5]", "result": 1.19, "unit": "%"}, {"measurement": "Injected dose/organ", "setting": "[6]", "result": 4.77, "unit": "%"}, {"measurement": "Injected dose/organ", "setting": "[7]", "result": 0.13, "unit": "%"}, {"measurement": "Injected dose/organ", "setting": "[8]", "result": 0.11, "unit": "%"}, {"measurement": "Injected dose/organ", "setting": "[9]", "result": 0.46, "unit": "%"}, {"measurement": "Injected dose/organ", "setting": "[10]", "result": 1.44, "unit": "%"}, {"measurement": "Injected dose/organ", "setting": "[11]", "result": 0.31, "unit": "%"}, {"measurement": "Injected dose/organ", "setting": "[12]", "result": 9.04, "unit": "%"}, {"measurement": "Injected dose/organ", "setting": "[13]", "result": 20, "unit": "%"}, {"measurement": "Injected dose/organ", "setting": "[14]", "result": 0.09, "unit": "%"}, {"measurement": "Injected dose/organ", "setting": "[15]", "result": 1.06, "unit": "%"}, {"measurement": "Injected dose/organ", "setting": "[16]", "result": 2.98, "unit": "%"}, {"measurement": "Injected dose/organ", "setting": "[17]", "result": 1.62, "unit": "%"}, {"measurement": "Injected dose/organ", "setting": "[18]", "result": 1.05, "unit": "%"}, {"measurement": "Injected dose/organ", "setting": "[19]", "result": 3.11, "unit": "%"}, {"measurement": "Injected dose/organ", "setting": "[20]", "result": 28.27, "unit": "%"}, {"measurement": "Injected dose/organ", "setting": "[21]", "result": 5.14, "unit": "%"}, {"measurement": "Dose/g", "setting": "[22]", "result": 0.08, "unit": "%"}, {"measurement": "Dose/g", "setting": "[23]", "result": 0.095, "unit": "%"}, {"measurement": "Dose/g", "setting": "[24]", "result": 1.23, "unit": "%"}, {"measurement": "Injected dose/organ", "setting": "[25]", "result": 0.91, "unit": "%"}, {"measurement": "Injected dose/organ", "setting": "[26]", "result": 18.54, "unit": "%"}, {"measurement": "Injected dose/organ", "setting": "[27]", "result": 23.76, "unit": "%"}, {"measurement": "Injected dose/organ", "setting": "[28]", "result": 0.86, "unit": "%"}, {"measurement": "Injected dose/organ", "setting": "[29]", "result": 3.72, "unit": "%"}, {"measurement": "Injected dose/organ", "setting": "[30]", "result": 0.23, "unit": "%"}, {"measurement": "Injected dose/organ", "setting": "[31]", "result": 0.76, "unit": "%"}]}]}
